Source: patent US11958868B2, “Methods of using metal complexes to promote wound healing” (University of Macau, priority 2022, dated 2024)
Where two headings read alike, the source gives them in different places.

Assays:
[1] = target: T1, human recombinant VHL:ElonginB:ElonginC (VBC) complex (Homo sapiens, UniProt P40337); assay: Fluorescence-based protein thermal shift assay (FTS) of VBC; format: binding; conditions: 100 μM
T1 construct: made in house
Protocol: (§1) HEK293 cells were treated with vehicle DMSO (1% for 2 h), 1a (0.3, 1, 3, 6 and 9 μM for 2 h), VH298 (100 μM for 2 h), MG132 (20 μM for 3 h), or FG-4592 (100 μM for 2 h) before lysis. Cell lysates were collected and incubated with VHL antibody overnight at 4° C. The proteins were immunoprecipitated using agarose beads. The levels of hydroxy-HIF-1α co-precipitated with VHL were detected using a hydroxy-HIF-1α antibody, and then visualized using ECL Western Blotting Detection Reagent (GE Healthcare). (B) Cellular thermal shift assays to monitor cellular target engagement of VHL and HIF-1α. HEK293 cell lysates were treated with 1a (3 μM) at room temperature for 30 min and then heated at different temperature ranging from 48° C. to 68° C. for 5 min. The protein samples were collected and detected by Western blotting using either VHL or PHD2 antibodies. (C) Fluorescence-based protein thermal shift assay of VBC in the presence or absence of VH298 (100 μM) and complex 1a (100 μM). […] Data are expressed as means±SD (n=3 independent experiments for figures a and b, samples for figures c and e), P values were calculated using a two-sided t-test. *P<0.05, **P<0.01 vs. DMSO group.
(§2) After incubating HEK293 cell lysates with complex 1a followed by heating to set temperatures, VHL and PHD2 levels in the soluble fraction were quantitated by Western blotting.

[2] = target: T1, human recombinant VHL:ElonginB:ElonginC (VBC) complex; assay: Isothermal titration calorimetry (ITC); format: binding
Protocol: as §1, with “μM). (D) ITC titration of complex 1a (300 μM) into recombinant VHL protein (30 μM). ITC experiments were carried in a MicroCal PEAQ-ITC Isothermal Titration Calorimeter (Malvern Panalytical). […] (F) Biolayer interferometry (BLI) kinetic analysis of the interaction between complex 1a and VBC. VBC was surface-immobilized to Ni-NTA biosensors.” for “μM).”
as §2

[3] = target: T1, human recombinant VHL:ElonginB:ElonginC (VBC) complex; assay: Competitive fluorescence polarization binding assay
[4] = target: T2, His-tagged recombinant VBC protein complex (Homo sapiens, UniProt P40337); assay: Biolayer interferometry (BLI); format: binding; conditions: for Kd: 1:1 interaction, 0.78-12.5 μM
T2 construct: made in house
Protocol: as §1, with “μM). (D) ITC titration of complex 1a (300 μM) into recombinant VHL protein (30 μM). ITC experiments were carried in a MicroCal PEAQ-ITC Isothermal Titration Calorimeter (Malvern Panalytical). […] (F) Biolayer interferometry (BLI) kinetic analysis of the interaction between complex 1a and VBC. VBC was surface-immobilized to Ni-NTA biosensors.” for “μM).”
as §2

[5] = system: HIF-1α, VEGF, GLUT1 and EPO levels in HEK293 cells; assay: Western blotting of HIF-1α and HIF-1α target gene products in HEK293 cells; format: cell-based, Human; conditions: 2 h
Protocol: FIG. 3 depicts the effect of complex 1a on HIF-1α target gene products in cellulo. (A) Effect of complex 1a on specific proteins (GLUT1, VEGF, and EPO) mediated by HIF-1α in HEK293 cells. HEK293 cells were treated with 1a for 2 h. Cell lysis were collected and analyzed by the Western blotting. (B) Complex 1a has no effect on HIF-1α accumulation in a VHL null cancer cell line. A498 (VHL-null), or HEK293 cells were treated with 1% DMSO, 1a (3 μM), VH298 (100 μM), and FG-4592 (100 μM) for 2 h before lysis. (C) Effect of complex 1a on EPO, GLUT1, and VEGF levels in HEK293 cells with or without HIF-1α knockdown. Left: The expression levels of EPO, GLUT1, and VEGF in HEK293 cells with or without knockdown HIF-1α in the presence or absence of 1a. Right: Densitometry analysis of EPO, GLUT1, and VEGF levels on the Western blot. HIF-1α siRNA [sense, 5′-[…]-3′ (SEQ ID NO:1), antisense, 5′-[…]-3′ (SEQ ID NO:2)]. Negative control (NC) siRNA [sense, 5′-[…]-3′ (SEQ ID NO:3), antisense, 5′-[…]-3′ (SEQ ID NO:4)]. Data are expressed as means±SD (n=3 independent experiments), P values were calculated using a two-sided t-test. #P<0.05, P<0.01 HIF-1α siRNA vs. NC siRNA, *P<0.05, **P<0.01 1a vs. vehicle/DMSO group, respectively.
Therefore, the effect of complex 1a on HIF-1α and HIF-1α target protein levels in cellulo was investigated. […]

[6] = Body weight, blood glucose and toxicity in treated mice; format: in vivo
Source text: The mice were maintained for 3 days. […] All experiments complied with all relevant ethical regulations.

With `COc1cc[n+]2c3c1ccc1c(OC)cc[n+](c13)[Ir-3]213([c]2ccccc2-c2cccc[n+]21)[c]1ccccc1-c1cccc[n+]13.F[P-](F)(F)(F)(F)F` [1a] the “Shift of the melting curve of purified VBC (FTS)” value [1] was “ca. 3.0 °C”, the “ΔG (ITC)” value [2] was -8.14 kcal/mol and the “ΔH (ITC)” value [2] was -7.85 kcal/mol. For the same compound, the “−TΔS (ITC)” value [2] was -0.29 kcal/mol, the Kd ([2]; 300 μM complex titrated into 30 μM VBC, 25° C.) was 1.08 ± 0.2 µM and the IC50 ([3]; 125 nM fluorescent peptide and 450 nM VBC, four-parameter logistic equation) was 3.79 µM. For the same compound, the Kd ([3]; displacement of FAM-DEALAHyp-YIPD from VBC) was 2.06 µM, the “koff (BLI)” value [4] was 0.0352 s⁻¹ and the “kon (BLI)” value [4] was 522 M⁻¹ s⁻¹. For the same compound, the Kd ([4]; read-out: Kd (BLI, kinetic fit)) was 6.74 ± 0.19 µM, the Kd ([4]; read-out: Kd (BLI, steady state fit)) was 5.8 ± 0.64 µM and the “Expression levels of HIF-1α, VEGF, GLUT1 and EPO” value [5] was “increased in a dose-dependent manner”. The “Blood glucose levels or body weight” value ([6]; HFD/STZ and STZ models, diabetic and NC mice, 1.25 mg/kg i.p.) was “neither diabetic nor normal control mice (NC) showed obvious changes in blood glucose levels or body weight”, the “Body weight after local application” value ([6]; WT and db/db mice, 0.25 mg/mL topical, 8 days) was “did not affect body weight” and the “Toxicity in animal models of diabetes” value ([6]; db/db, HFD/STZ and STZ) was “without significant toxicity”.
